{
  "source": "patent US10729659B2",
  "about": "“Nanogel-mediated drug delivery” (The Cleveland Clinic Foundation, priority 2012, dated 2020)",
  "system": "p21",
  "assay": "Western blotting of p21",
  "type": "cell-based, human",
  "details": "MCF-7/Adr",
  "method": "Whole cell lysates, were made by lysing 1×10^6 treated or untreated cells, with RIPA buffer (Sigma-Aldrich, St. Louis, Mo.) containing 1× protease inhibitor cocktail (Calbiochem, Gibbstown, N.J.). Lysates were collected by centrifugation at 14,000 rpm for 15 min Protein concentration was determined by a bicinchoninic acid (BCA) assay kit (Pierce, Rockford, Ill.). 20-40 μg proteins of cell lysates were electrophoresed through 13.5% SD Spolyacrylamide gel or 4-15% linear pre-cast polyacrylamide gradient gel (Bio-Rad Laboratories, Hercules, Calif.) and transferred to polyvinylidene difluoride (PVDF) membranes (GE Healthcare Bio-sciences, corp., Piscataway, N.J.). The blots were probed for mouse monoclonal p21 (Cell Signaling Technology, Inc., Danvers, Mass.), mouse monoclonal DNMT1 (Abcam Inc., Cambridge, Mass.), and mouse monoclonal anti-actin (Sigma-Aldrich, St. Louis, Mo.). For detection of bound antibody, PVDF membrane was incubated with horse radish—tagged, goat anti-mouse antibody. After incubation membrane was washed with TBST, and stained with enhanced chemiluminescence (ECL) reagent or ECL plus reagent (GE Healthcare Bio-sciences, corp., Piscataway, N.J.) according to manufacturer protocol.",
  "data": [
    {"smiles": "Nc1ncn([C@H]2C[C@H](O)[C@@H](CO)O2)c(=O)n1", "note": "[DAC, 5-aza-2′-deoxycytidine]", "values": [
      {"measurement": "p21 protein expression (immunoblotting)", "result": "significant increase"}
    ]}
  ]
}
